Patent US20210369583A1, “COMPOSITIONS FOR PROVIDING SKIN CARE BENEFITS AND METHODS OF USE” (Danisco US Inc., priority 2018, published 2021)

Key:
Type in all cases: cell-based
HO-1 (Heme-Oxygenase-1) = assay: Immunostaining of HO-1 in human skin explants, image analysis
Protocol: 59 human skin explants of an average diameter of 14 mm (±1 mm) were prepared on an abdoplasty coming from a person. The explants were kept in survival in BEM culture medium at 37° C. in a humid, 5%-CO2 atmosphere.
The tested products were topically applied on the basis of 2 μl per cm^2 and spread using a small spatula twice a day (morning and evening) on day 0, 1, 2, 3 and 4.
On D4, the explants of the batches ML and PML were placed on the 3D grid with 900 μl of HBSS and placed into the PolluBox® system.
3 mL of the solution <<ML>> (supplemented with 150 μl/ml of NaCl 0.9%) were exposed by vaporization for 1 hour and half, as shown in the figure below.
Heme-Oxygenase is a phase II skin anti-oxidant enzyme which generates cell anti-oxidant molecules. […] The immunostaining was performed using an automated slide processing system (Autostainer, Dako) and assessed by microscopical observation. […]
The images analyses were performed on all the images (9 to 12 images) of each batch using the CellD storing software (Olympus Microscopy, Matrix Optics (M)SdnBhd, Taman Mayhang, Maylasia). For each batch of explants, the percentage of the region of interest covered by the staining (stained surface percentage) was determined by image analysis. […]
Analyzed batches: T, P2, ML, P2ML (4 batches, 3 explants/batch, so 12 explants at day 5 referred to as TJ5, P2J5, MLJ5, P2MLJ5.

[1] = system: human living skin explant; assay: Cell viability of human living skin explants (UV study); conditions: day 4
Protocol: (§1) human skin explants of an average diameter of 12 mm (±1 mm) were prepared on an abdoplasty coming from a person). The explants were kept in survival in BEM culture medium at 37° C. in a humid, 5%-CO2 atmosphere.
(§2) On day 0 (D0), day 1, day 2 and day 3 (3 hours before irradiation), the tested products were applied topically on surface of skin explants at the rate of 2 mg/cm^2, twice a day for D1 and D2 and once on DO and D3. […] The medium was half renewed (1 ml per well) on day 2.
(§3) On D3, the culture media of all the batches was replaced by HBSS solution (Hank's Balanced Saline Solution; 1 ml per explant). The batches “UV” were irradiated by UVA+ UVB using a UV simulator Vibert Lourmat RMX 3W with a dose of 18 J/cm2 of UVA (4 MED, minimal erythemal dose) and 0.3 J/cm2 of UVB (2 MED). The unirradiated batches were kept in HBSS in the dark. At the end of the irradiation the explants were put back in 2 mL of BEM medium.
(§4) After fixation for 24 hours in buffered formalin, the samples were dehydrated and impregnated in paraffin using a Leica PEARL dehydration automat. The samples were embedded using a Leica EG 1160 embedding station. 5-μm-thick sections were made using a Leica RM 2125 Minot-type microtome, and the sections were mounted on Superfrost® histological glass slides. The frozen samples were cut into 7-μm-thick sections using a Leica CM 3050 cryostat. Sections were then mounted on Superfrost® plus silanized glass slides. The microscopical observations were realized using a Leica DMLB or Olympus BX43 microscope. Pictures were digitized with a numeric DP72 Olympus camera with CellD storing software.

[2] = system: human living skin explant; assay: TUNEL assay (UV-induced DNA damage) on human living skin explants; conditions: UV irradiated
Protocol: as §1, §2, §3, §4
DNA oxidization is a type of damage that can be promoted by reactive oxygen species (ROS), generated by UV exposure. […] The staining was assessed by microscopical observation. Batches analyzed were T, TUV, P1UV, P2UV, P3UV at day 4 also referred to as TJ4, TUVJ4, P1UVJ4, P2UVJ4, P3UVJ4 (T=Control batch non treated non irradiated; TJ4=T at Day 4 (D4); TUV: control batch non treated UV irradiated; TUVJ4=[…] at Day 4; P1J4: product A 4% non irradiated at D4; P2J4: product A 2% non irradiated at D4; P3J4: product A 1% non irradiated at D4; P1UV: product A 4% UV irradiated; P1UVJ4: product A 4% UV irradiated at D4 P2UV: product A 2% UV irradiated; P2UVJ4: product A 2% UV irradiated at D4; P3UV: product A 1% UV irradiated; P3UVJ4: product A 1% UV irradiated at D4

[3] = system: human living skin explant; assay: Immunostaining of carbonylated proteins (FTZ) on human living skin explants
Protocol: as §1, §2, §3, §4
Protein carbonylation is a type of protein oxidation that can be promoted by reactive oxygen species (ROS), generated by UV exposure. FTZ marker assay was conducted by immunostaining in the living epidermis of human skin explant as follows: Carbonylated proteins were stained on frozen sections with the anti-carbonylated proteins probe (fluorescein-5-thiosemicarbazid-FTZ) (Lifetechnologies, Ref. F-121) diluted at 0.5 μM in MES-Na+ and incubated for 30 minutes in the dark and at room temperature. The staining was observed by epifluorescence and assessed by microscopical observations. Batches analyzed were T, TUV, P1UV, P2UV, P3UV at day 4 also referred to as TJ4, TUVJ4, P1UVJ4, P2UVJ4, P3UVJ4

O=C(O)[C@@H]1CCCN1 [Combination P4, L-Proline]
effect on pollutant-induced HO-1 (HO-1 (Heme-Oxygenase-1); after pollutants exposure): strongly reduced the effect of the pollutants | effect on HO-1 expression (HO-1 (Heme-Oxygenase-1); without pollutants, D5): does not seem to affect the HO-1 expression | Cell Viability, variation vs TUVJ4 ([1]; UV irradiated): ↔ (indicates no variation) | Cell Viability, variation vs TJ4 ([1]; non irradiated): ↔ (indicates no variation) | activity against UV-induced DNA damage [2]: strong inhibition of the increase of DNA damage | effect on UV-induced carbonylated proteins ([3]; UV irradiated): inhibited the formation of carbonylated proteins | Carbonylated proteins (FTZ), variation vs TJ4 ([3]; non irradiated, day 4): ↔ (indicates no variation)
